Data published in EPA's ToxValDB 9.5.
Converted amounts (≈) assume the structure as drawn. “And” between values parts separate entries of the source, which are not always exact repeats. Equal entries are not always repeated.

Key:
Pontoscolex corethrurus = conditions: acute; mortality
Daphnia magna = conditions: acute, mortality
Oncorhynchus mykiss = conditions: acute; duration: 96 hours; mortality
Canidae = conditions: Dog Other; for NOAEL: oral
Colinus virginianus = conditions: mortality
Anas platyrhynchos = conditions: short-term; oral; feed; mortality
Mus musculus = conditions: chronic, hematological
Apis mellifera = conditions: acute, mortality
Bovidae = conditions: repeat dose other; oral; hematological
[1] = chronic, duration: 2 years, oral, diet
[2] = short-term, duration: 28 days, mortality
[3] = subchronic, duration: 90 days, oral, diet, F, Not specified, clinical chemistry
[4] = reproduction developmental, clinical signs

In the case of `Cc1cccc2nccnc12` [5-Methylquinoxaline], the LC50 (Pontoscolex corethrurus) is reported as 272 mg/kg.

`NC(N)=NCC(=O)O` [N-(Aminoiminomethyl)glycine] showed an LEL (Gallus gallus; subchronic, duration: 35 days, oral, diet, hematological) of 1500 mg/kg-day.

In the case of `CC/C=C\CCCCC=O` [(Z)-Non-6-enal], the LC50 (Daphnia magna) is reported as 8 µg/mL (≈ 57.1 µM) and the LC50 (Pontoscolex corethrurus) is reported as 191 mg/kg.

For `c1cnc2c(n1)CCCC2` [5,6,7,8-Tetrahydroquinoxaline], the LC50 (Pontoscolex corethrurus) was 238 mg/kg.

`c1ccc(Nc2ccccc2)cc1` [Diphenylamine] showed an NOEC (Daphnia magna; duration: 48 hours) of under 0.38 mg/L, an LC50 (Oncorhynchus mykiss) of 2.2 µg/mL (≈ 13 µM) and an NOEC (Oncorhynchus mykiss) of 0.71 mg/L. It also gave an NOAEL (Canidae; chronic, duration: 1 years, clinical chemistry) of 10 mg/kg-day, an NOAEL (Canidae; chronic, duration: 1 years, hematological) of 10 mg/kg-day and an NOAEL (Canidae; subchronic, duration: 90 days, clinical chemistry) of 10 mg/kg-day. For the same molecule, the NOAEL (Canidae; subchronic, duration: 90 days, hematological) was 10 mg/kg-day, the LD50 (Colinus virginianus; acute, oral) was over 2250 mg/kg-day and the NOAEL (Rattus norvegicus; chronic, duration: 2 years, hematological) was 7.5 mg/kg-day. It also gave an NOAEL (Rattus norvegicus; subchronic, duration: 90 days, oral, clinical chemistry) of 9.6 mg/kg-day, an NOAEL (Rattus norvegicus; subchronic, duration: 90 days, oral, hematological) of 9.6 mg/kg-day and an LC50 (Anas platyrhynchos) of 2290 mg/kg-day.

Molecule `CCCCCCCCCCCCN(C)C` [N,N-Dimethyldodecan-1-amine] has an NOAEL (reproduction developmental) of 50 mg/kg-day, an NOAEL (Rattus norvegicus; [1]) of 50 mg/kg-day and an NOAEL (Rattus norvegicus; [2]) of 50 mg/kg-day.

With `CCCCCCCCC(=O)NCc1ccc(O)c(OC)c1` [N-Vanillylnonanamide] the NOEL (repeat dose other) was 8.4 mg/kg-day and the NOAEL (Rattus norvegicus; subchronic, duration: 90 days, oral, M/F) was 8.4 mg/kg-day.

Molecule `CC(C)O` [Isopropanol] has an NOAEL (Oryctolagus sp.; reproduction developmental, duration: 13 days, oral, gavage, F, New Zealand, mortality) of 240 mg/kg-day.

In the case of `CCN(CC)c1ccc(C(=C2C=CC(=[N+](CC)CC)C=C2)c2cc(O)c(S(=O)(=O)[O-])cc2S(=O)(=O)[O-])cc1.CCN(CC)c1ccc(C(=C2C=CC(=[N+](CC)CC)C=C2)c2cc(O)c(S(=O)(=O)[O-])cc2S(=O)(=O)[O-])cc1.[Ca+2]` [Acid Blue 3], the NOAEL (Mus musculus; duration: 21 months, M) is reported as 500 mg/kg-day and the NOAEL (Mus musculus; duration: 23 months, F) is reported as 500 mg/kg-day.

In the case of `CC(c1ccc(C(F)(F)F)nc1)S(C)(=O)=NC#N` (stereo unspecified) [Sulfoxaflor], the LD50 (Apis mellifera; duration: 48 hours, oral, unspecified) is reported as 0.146 µg/piece and the LD50 (Apis mellifera; duration: 72 hours, dermal) is reported as 0.397 µg/piece.

For `CN1CCCC1` [N-Methylpyrrolidine], the NOAEL (reproduction developmental) was 50 mg/kg-day, the NOAEL (Rattus norvegicus; [1]) was 50 mg/kg-day and the NOAEL (Rattus norvegicus; [2]) was 50 mg/kg-day.

Molecule `C[C@@H]1Cc2c(Cl)cc(C(=O)N[C@@H](Cc3ccccc3)C(=O)O)c(O)c2C(=O)O1` [Ochratoxin A] has an LEL (Gallus gallus; repeat dose other, oral, diet, organ weight) of 0.5 mg/kg-day, an LEL (Canidae; short-term, duration: 14 days, histopathology: nonneoplastic) of 0.2 mg/kg-day and an LOAEL (Sus scrofa; [3]) of 0.008 mg/kg-day. It also gave an LOEL (Sus scrofa; [3]) of 0.008 mg/kg-day.

Molecule `C1CCC(SSC2CCCCC2)CC1` [Dicyclohexyl disulfide] has an NOAEL (subchronic, duration: 90 days, oral) of 0.23 mg/kg-day.

`COc1cc(CCC(C)=O)ccc1O` [4-(4-Hydroxy-3-methoxyphenyl)-2-butanone] gave an LC50 (Pontoscolex corethrurus) of 346 mg/kg.

`CCCSP(=O)(OCC)SCCC` [Ethoprop] gave an NOEL (Colinus virginianus; reproduction developmental) of 0.088 mg/kg-day and an NOEL (Rattus norvegicus; chronic) of 7.3 mg/kg-day.

With `CCc1nccnc1OC` [Pyrazine, 2-ethyl-3-methoxy-] the LC50 (Pontoscolex corethrurus) was 243 mg/kg.

Work on `Cc1ccc(C(C)C)cc1O` [Isopropyl-o-cresol] yielded an LEL (Sus scrofa; subchronic, duration: 6 weeks, oral, diet, M/F, Not specified, no effects) of 2000 mg/kg-day.

`CC(O)C(=O)[O-].CC(O)C(=O)[O-].[Ca+2]` (stereo unspecified) [Calcium lactate] gave an LEL (Gallus gallus; subchronic, duration: 42 days, oral, diet, Chicken, no effects) of 30000 mg/kg-day.

`O=C(O)c1cn[nH]c1C(F)F` [1H-3-Difluoromethylpyrazole-4-carboxylic acid] showed an NOAEL (Oryctolagus sp.; reproduction developmental, body weight) of 300 mg/kg-day.

`[Ca+2].[I-].[I-].[O-2].[O-2].[O-2].[O-2].[O-2].[O-2]` [Iodic acid (HIO3), calcium salt (2:1)] showed an LEL (Gallus gallus; repeat dose other, no effects) of 5 mg/kg-day, an LEL (Gallus gallus; subchronic, duration: 35 days, oral, diet, M, no effects) of 5 mg/kg-day and an LEL (Sus scrofa; repeat dose other, Not specified, no effects) of 8 mg/kg-day. For the same molecule, the LEL (Sus scrofa; short-term, Not specified, no effects) was 8 mg/kg-day.

`CCCCC(CC)COC(=O)C1CCC(C(=O)OCC(CC)CCCC)CC1` (stereo unspecified) [Bis(2-ethylhexyl) cyclohexane-1,4-dicarboxylate] gave an NOAEL (subchronic, duration: 90 days, oral, no effects) of 1000 mg/kg-day.

`O=N[O-]` [Nitrite ion] gave an NOAEL (Bovidae) of 3.3 mg/kg-day, an NOEL (Rattus norvegicus; chronic, duration: 2 years, oral, drinking water, gross pathology) of 6.7 mg/kg-day and an NOAEL (Sus scrofa; repeat dose other, oral, diet, Not specified, hematological) of 3.3 mg/kg-day.

With `CCCC(CCC)C(=O)O` [Valproic acid] the NOAEL (repeat dose other, development) was 600 mg/kg-day.

`O=C([O-])c1ccccc1.[Na+]` [Sodium benzoate] showed an LEL (Sus scrofa; repeat dose other, oral, diet, M/F, Not specified, no effects) of 36000 mg/kg-day, an LEL (Sus scrofa; subchronic, duration: 36 days, oral, diet, Duroc, body weight) of 36000 mg/kg-day and an LEL (Sus scrofa; subchronic, duration: 42 days, oral, diet, Not specified, body weight) of 36000 mg/kg-day.

Molecule `O=C(O)C(O)Cn1cncn1` (stereo unspecified) [Triazole lactic acid] has an NOAEL (Oryctolagus sp.; developmental, development) of 30 mg/kg-day.

In the case of `C=CCc1ccc(O)c(OC)c1` [Eugenol], the NOAEL (Oryctolagus sp.; [4]) is reported as 100 mg/kg-day, the LC50 (Oncorhynchus mykiss) is reported as 5.6 µg/mL and > 10 µg/mL and the LD50 (Rattus norvegicus; acute, oral, mortality) is reported as 1930 mg/kg. The NOAEL (Rattus norvegicus; chronic, duration: 2 years, body weight) was 300 mg/kg-day, the NOEL (Rattus norvegicus; developmental, development) was 250 mg/kg-day and the NOAEL (Rattus norvegicus; [4]) was 100 mg/kg-day.
